Experimental data as given in ChEMBL document CHEMBL1201862, “PubChem BioAssay data set” (2004).
Active and inactive are the calls of the source.

What was measured:
Type in all cases: functional
HEK293 = test: NOD1 signaling inhibitors, primary screen, cell-based, luminescence, uHTS (AID 1578); details: Homo sapiens
[1] = molecular target: T1, Neuropeptide Y receptor type 1 (Homo sapiens, UniProt P25929); test: Fluorescence-based counterscreen for agonists of NPY-Y2: cell-based high-throughput dose response assay for agonists of NPY-Y1.
T1 sequence (P25929 whole entry): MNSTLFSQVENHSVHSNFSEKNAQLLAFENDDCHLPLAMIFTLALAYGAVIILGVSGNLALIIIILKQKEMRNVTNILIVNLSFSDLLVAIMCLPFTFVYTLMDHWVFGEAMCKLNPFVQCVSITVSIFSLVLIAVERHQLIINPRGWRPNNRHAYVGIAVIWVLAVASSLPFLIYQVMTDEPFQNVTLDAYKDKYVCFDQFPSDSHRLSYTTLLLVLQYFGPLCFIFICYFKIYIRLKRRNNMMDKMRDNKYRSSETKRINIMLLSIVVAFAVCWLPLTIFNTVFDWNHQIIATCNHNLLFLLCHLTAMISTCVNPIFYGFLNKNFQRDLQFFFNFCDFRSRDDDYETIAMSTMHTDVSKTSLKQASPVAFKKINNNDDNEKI

[2] = Shn3 3'UTR reporter inhibitors, dose response, cell-based, Clone20 osteoblasts, firefly luciferase, cherry-picked (AID 624132);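 note: firefly luciferase luminescence from reporter carrying the Shn3 3'UTR in osteoblasts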
[3] = BHK-21 cell cytotoxicity, cytotoxicity control for flavivirus guanylyltransferase probe project, secondary screen (AID 624078)
Protein RecA = molecular target: T2, Protein RecA (Mycobacterium tuberculosis, UniProt P9WHJ3); test: Fluorescence Cell-Free Homogeneous Dose Retest to Identify Inhibitors of RecA-Intein Splicing Activity. [Related pubchem assays (depositor defined):AID2097, AID2223, AID489010, AID492950]
T2 sequence (P9WHJ3 whole entry): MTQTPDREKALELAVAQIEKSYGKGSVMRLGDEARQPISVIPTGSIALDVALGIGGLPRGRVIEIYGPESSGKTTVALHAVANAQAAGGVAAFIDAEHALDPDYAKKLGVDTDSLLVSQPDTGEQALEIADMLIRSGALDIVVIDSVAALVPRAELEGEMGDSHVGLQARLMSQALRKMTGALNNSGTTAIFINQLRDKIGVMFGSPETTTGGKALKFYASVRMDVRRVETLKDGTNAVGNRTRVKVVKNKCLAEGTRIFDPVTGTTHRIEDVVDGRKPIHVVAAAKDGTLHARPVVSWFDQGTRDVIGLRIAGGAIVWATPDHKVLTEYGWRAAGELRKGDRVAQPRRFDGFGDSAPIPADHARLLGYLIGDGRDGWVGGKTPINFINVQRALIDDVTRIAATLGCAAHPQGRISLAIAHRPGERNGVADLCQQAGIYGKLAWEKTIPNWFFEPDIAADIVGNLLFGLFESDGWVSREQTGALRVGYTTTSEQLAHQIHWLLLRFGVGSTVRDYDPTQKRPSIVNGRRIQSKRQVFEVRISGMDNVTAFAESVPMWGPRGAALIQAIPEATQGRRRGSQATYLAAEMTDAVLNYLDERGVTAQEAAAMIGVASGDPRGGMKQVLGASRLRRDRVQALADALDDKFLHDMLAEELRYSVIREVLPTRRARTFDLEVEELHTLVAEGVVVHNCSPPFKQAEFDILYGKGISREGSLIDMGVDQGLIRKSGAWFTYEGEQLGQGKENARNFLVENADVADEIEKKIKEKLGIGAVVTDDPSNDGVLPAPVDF

[4] = molecular target: T3, Replicative DNA helicase DnaB (Mycobacterium tuberculosis, UniProt P9WMR3); test: DnaB intein splicing inhibitors, dose response, biochemical, cell-free fluorescence (AID 449749)
T3 sequence (P9WMR3 whole entry): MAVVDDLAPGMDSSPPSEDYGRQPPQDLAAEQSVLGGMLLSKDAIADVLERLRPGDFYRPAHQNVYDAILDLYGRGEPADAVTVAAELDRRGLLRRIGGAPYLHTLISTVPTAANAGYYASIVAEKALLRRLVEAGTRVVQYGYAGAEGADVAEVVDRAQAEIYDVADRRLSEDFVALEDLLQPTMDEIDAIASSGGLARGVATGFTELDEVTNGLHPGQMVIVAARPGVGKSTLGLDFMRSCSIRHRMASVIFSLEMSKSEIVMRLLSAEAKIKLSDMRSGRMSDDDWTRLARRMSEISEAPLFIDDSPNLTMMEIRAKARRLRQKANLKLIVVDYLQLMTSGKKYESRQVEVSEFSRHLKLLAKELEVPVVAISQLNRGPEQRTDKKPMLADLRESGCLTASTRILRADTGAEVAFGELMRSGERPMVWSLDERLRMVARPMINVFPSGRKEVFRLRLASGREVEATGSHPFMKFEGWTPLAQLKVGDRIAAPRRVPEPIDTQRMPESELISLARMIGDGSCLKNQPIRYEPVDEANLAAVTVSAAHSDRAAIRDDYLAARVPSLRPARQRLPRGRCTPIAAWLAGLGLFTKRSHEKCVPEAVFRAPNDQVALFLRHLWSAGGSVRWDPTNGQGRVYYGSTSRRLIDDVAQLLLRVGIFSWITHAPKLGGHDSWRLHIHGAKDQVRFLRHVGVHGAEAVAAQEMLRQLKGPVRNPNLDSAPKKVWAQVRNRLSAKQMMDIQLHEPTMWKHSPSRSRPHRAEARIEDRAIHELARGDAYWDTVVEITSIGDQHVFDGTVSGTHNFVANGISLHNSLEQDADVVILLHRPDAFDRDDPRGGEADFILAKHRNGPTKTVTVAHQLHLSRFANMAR

[5] = molecular target: T4, Sphingosine 1-phosphate receptor 4 (Homo sapiens, UniProt O95977); test: Fluorescence dose response cell-based high throughput screening assay for antagonists of the Sphingosine 1-Phosphate Receptor 4 (S1P4). [Related pubchem assays: 1524 (Confirmation in triplicates.), 1510 (Primary screen.)]
T4 sequence (O95977 whole entry): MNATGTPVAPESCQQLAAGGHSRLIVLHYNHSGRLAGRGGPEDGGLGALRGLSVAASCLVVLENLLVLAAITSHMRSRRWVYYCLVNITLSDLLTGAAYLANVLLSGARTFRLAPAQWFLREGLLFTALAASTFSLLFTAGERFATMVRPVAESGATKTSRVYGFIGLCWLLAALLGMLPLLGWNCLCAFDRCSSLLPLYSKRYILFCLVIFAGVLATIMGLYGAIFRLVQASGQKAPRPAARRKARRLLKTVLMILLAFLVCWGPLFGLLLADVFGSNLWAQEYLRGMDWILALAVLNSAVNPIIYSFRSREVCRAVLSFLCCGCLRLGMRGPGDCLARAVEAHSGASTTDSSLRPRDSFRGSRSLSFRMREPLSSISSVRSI

SMILES	EC50 (HEK293)	EC50 [1]	AC50 [2]	CC50 [3]	EC50 (Protein RecA)	AC50 [4]	IC50 [5]
O=C(CNc1cccc2ccccc12)N/N=C/c1ccc([N+](=O)[O-])o1	3280 nM (active)						
O=C(CC(O)(C(F)(F)F)C(F)(F)F)Nc1ccc(Cl)c(Cl)c1		16500 nM (not active)	4970 nM (active)				
O=C(O)CSc1cc(NS(=O)(=O)c2ccc(Br)cc2)c2ccccc2c1O				7810 nM (active)	244 nM (active)	883 nM (active)	
Cc1ccc(NC(=O)C2=C(c3ccccc3)S(=O)(=O)CCS2(=O)=O)cc1			558 nM (active)		1010 nM (active)	2180 nM (active)	1040 nM (active)
